This is an account of results in PMC8729767, “Specific Strains of Honeybee Gut Lactobacillus Stimulate Host Immune System to Protect against Pathogenic Hafnia alvei” (Microbiology Spectrum, 2022).

The subject of series [1] is honeybees exposed to H. alvei. Briefly: H. alvei infection survival assay. Type of series: in vivo, Apis mellifera. Particulars: adult worker bees fed 450 μg/ml tetracycline in sucrose syrup, then orally exposed to H. alvei SMH01 for 24 h; N = 30 bees per group; Mantel-Cox test, P < 0.05. How it is done:
Using in vivo virulence assays, we first explored whether H. alvei is pathogenic to adult honeybees. One H. alvei strain SMH01 was isolated from the worker bee gut. Then we investigated if the strain contributes to increased mortality of bees with normal or disturbed gut microbiota. Adult worker bees were collected from a brood frame in the hive and were treated with or without tetracycline. After introduction in the lab, groups of bees were fed filter-sterilized sucrose syrup (controls) or tetracycline suspended in the diet (Tet) for 5 days (Fig. 1A). Then we challenged bees with H. alvei SMH01. Bees were orally exposed to H. alvei in their food for 24 h. […] To confirm the pathogenicity of H. alvei to honeybees, we performed histology of honeybee guts exposed to H. alvei. […] Damaged tissue presented barely preserved mucosal architecture of the rectum in H. alvei-infected bees (Fig. 1C and D).
Approximately 200 adult worker bees were collected from brood frame from the hive kept at Miyun County, Beijing (March 2019). The bees were immobilized at 4°C and were divided into two cohorts (control and tetracycline treatment) distributed to cup cages as previously described ([11]). The cup cages were maintained in an incubator at 35°C, with humidity of 50%. Each cohort has five replicating cup cages containing ∼20 bees in each cup. […]

The subject of a further series is H. alvei. It is filed as cell-based, Hafnia alvei. The method, then: To verify the inhibitory effect of AMPs secreted by honeybees on H. alvei, we performed an in vitro AMP resistance assay (Table S2 in the supplemental material). A. mellifera expresses two dominant apidaecin isoforms (Ia, Ib) at a ratio of approximately 1 : 20 ([31]). […] However, low concentration (8–16 μg/ml) of apidaecin-1a and 1b inhibited the growth of H. alvei, and the pathogen was slightly more resistant to apidaecin Ia than to Ib.
To test the activity of AMPs against H. alvei, growth inhibition assays in liquid media were performed using 50% diluted HIA media. AMPs synthesized by GL Biochem and Sangon Biotech were serially diluted in 96-well plates to obtain concentrations of 0.5 to 512 µg/ml. Overnight grown H. alvei cultures from HIA media were diluted to 1 × 10^6 CFU/ml in 50% Heart Infusion Broth. Optical density was recorded after 24 h of incubation at 35°C, 5% CO2.

[2] abbreviates: H. alvei 1 × 10^6 CFU/ml in 50% Heart Infusion Broth, optical density after 24 h at 35°C, 5% CO2.

Like-named read-outs stand apart in the source and are kept apart here. Peptide text beside a SMILES is read from it.

Take `CN(C)[C@@H]1C(O)=C(C(N)=O)C(=O)[C@@]2(O)C(O)=C3C(=O)c4c(O)cccc4[C@@](C)(O)[C@H]3C[C@@H]12` [Tetracycline, tetracycline]: the “survivorship of honeybees after exposure to H. alvei” value in series [1] is listed as “reduced survivorship”. In turn, `CC[C@H](C)[C@H](NC(=O)[C@H](CCCCN)NC(=O)[C@@H]1CCCN1C(=O)[C@H](CC(N)=O)NC(=O)[C@H](Cc1ccccc1)NC(=O)[C@@H]1CCCN1C(=O)CNC(=O)[C@H](CCC(N)=O)NC(=O)CNC(=O)[C@@H]1CCCN1C(=O)[C@H](Cc1ccccc1)NC(=O)[C@@H](NC(=O)[C@@H]1CCCN1C(=O)[C@H](Cc1ccccc1)NC(=O)[C@@H]1CCCN1C(=O)[C@H](CCCNC(=N)N)NC(=O)[C@H](CCCNC(=N)N)NC(=O)CNC(=O)[C@@H]1CCCN1C(=O)[C@H](CCC(N)=O)NC(=O)[C@@H]1CCCN1C(=O)[C@@H](NC(=O)[C@H](CC(N)=O)NC(=O)[C@@H]1CCCN1C(=O)[C@H](CC(C)C)NC(=O)[C@@H]1CCCN1C(=O)[C@@H](NC(=O)[C@@H](N)Cc1ccc(O)cc1)C(C)C)[C@@H](C)CC)[C@@H](C)O)C(=O)N[C@@H](CCCCN)C(=O)N[C@@H](Cc1c[nH]c2ccccc12)C(=O)N1CCC[C@H]1C(=O)N[C@@H](CCC(N)=O)C(=O)NCC(=O)N[C@@H](Cc1ccc(O)cc1)C(=O)O` [abaecin] (H-YVPLPNIPQPGRRPFPTFPGQGPFNPKIKWPQGY-OH; N-terminus and C-terminus assumed) yielded an MIC against H. alvei (24 h) of more than 512 µg/mL. Turning to apidaecin-1a, the “low concentration that inhibited the growth of H. alvei” value in the series on H. alvei (setting [2]) was 8 to 16 µg/mL. Take apidaecin-1b: in the series on H. alvei (setting [2]), the “low concentration that inhibited the growth of H. alvei” value lay within 8 to 16 µg/mL. In the series with H. alvei (in vitro growth inhibition, 24 h, 35°C, 5% CO2), the “concentration with a profound inhibition on the growth of H. alvei” value is not below 4 µg/mL.

In the series with H. alvei (H. alvei 1 × 10^6 CFU/ml in 50% Heart Infusion Broth, AMPs serially diluted 0.5 to 512 µg/ml in 96-well plates, optical density after 24 h at 35°C, 5% CO2), hymenoptaecin gave an MIC of more than 512 µg/mL.
